We go through 10 compounds from ChEMBL document CHEMBL1201862, “PubChem BioAssay data set” (2004).

SMILES strings stand for the structures.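 Cells were grown in 96-well plates and exposed to each compound for 48 hours at five concentrations; endpoints were interpolated linearly between bracketing concentrations, or set to the highest concentration if not reached. GI50: concentration for 50% inhibition of growth.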 Active and inactive are the calls of the source. Cut-off read from the data, not from the text of the source: active = GI50 up to about 1.1 µM and inactive = higher.

Among the test systems are NCI-H23; NCI-H522; SNB-75; KM12; NCI-H226; Hs-578T; SK-OV-3; TK-10; SN12C; HCT-15; A498; UACC-62; DU-145; BT-549; LOX IMVI; OVCAR-8; ACHN; EKVX; HOP-92; SW-620.
What all share (assay): NCI anticancer screen, dose series, 48 h

For the compound `COc1ccc2c(c1)CCc1c(-c3noc4c3CCc3cc(OC)ccc3-4)noc1-2`, the GI50 with NCI-H23, with NCI-H522, in the experiment on SNB-75, in the experiment with KM12, in the experiment on NCI-H226 and in the experiment on Hs-578T was > 100 µM (inactive) in each case. Moreover, the GI50 is > 100 µM (inactive) in the experiment on SK-OV-3; > 100 µM (inactive) in the experiment on TK-10; > 100 µM (inactive) with SN12C; > 100 µM in the experiment with HCT-15; > 100 µM (inactive) in the experiment with A498; > 100 µM (inactive) with UACC-62. Besides, the GI50 was > 100 µM (inactive) in the experiment on DU-145; > 100 µM (inactive) in the experiment with BT-549; > 100 µM (inactive) in the experiment with LOX IMVI; > 100 µM (inactive) in the experiment with OVCAR-8; > 100 µM (inactive) in the experiment with ACHN; 53.1 µM (inactive) in the experiment with EKVX. The GI50 with HOP-92 and with SW-620 was > 100 µM (inactive) throughout.

For the compound `C[N+](C)(C)CC(=O)N/N=C(/CC1OC(=O)c2ccccc21)c1ccccc1O` (stereo not given), the GI50 with NCI-H23 is 26.5 µM (inactive); in the experiment on NCI-H522, 46.5 µM (inactive); in the experiment with SNB-75 it was 39.1 µM (inactive); with KM12 it was 26.7 µM (inactive); in the experiment on NCI-H226 it was 20 µM (inactive); in the experiment on Hs-578T, 60.3 µM (inactive). For the same compound, the GI50 in the experiment on SK-OV-3 is 35.2 µM (inactive); in the experiment on TK-10, 31.9 µM (inactive); in the experiment with SN12C, 49 µM (inactive); in the experiment with HCT-15, 36.2 µM; in the experiment with A498, 38.5 µM (inactive); with UACC-62 it was 22.9 µM (inactive). Further, the GI50 was 34.7 µM (inactive) in the experiment with DU-145; 25.1 µM (inactive) with BT-549; 17.4 µM (inactive) in the experiment on LOX IMVI; 29.2 µM (inactive) in the experiment with OVCAR-8; 20.3 µM (inactive) in the experiment on ACHN; 62.4 µM (inactive) in the experiment with EKVX. The figures for the GI50 with HOP-92 and in the experiment on SW-620 were 29.7 µM (inactive) and 33.4 µM (inactive), respectively.

Take `CC(=O)OC1C(C)OC(OC(=O)C2CCC3C(C2)OC2(CC(OC(=O)/C=C/c4ccccc4)C(C)CO2)C32CO2)C(OC2OC(C)C(O)C(OC(C)=O)C2O)C1O` (stereo not given): the GI50 in the experiment with NCI-H23, in the experiment with NCI-H522, in the experiment with SNB-75, with KM12, in the experiment on NCI-H226 and with Hs-578T was < 0.01 µM (active) each time. Also, the GI50 in the experiment with SK-OV-3 is < 0.01 µM (active); in the experiment with TK-10 it was 0.0131 µM (active); in the experiment on SN12C, < 0.01 µM (active); with HCT-15, 0.319 µM; in the experiment on A498, 0.0205 µM (active); with UACC-62 it was < 0.01 µM (active). Moreover, the GI50 in the experiment on DU-145 was < 0.01 µM (active); in the experiment with BT-549, < 0.01 µM (active); in the experiment on LOX IMVI, < 0.01 µM (active); in the experiment on OVCAR-8, < 0.01 µM (active); in the experiment with ACHN, < 0.0421 µM (active); in the experiment on EKVX, < 0.01 µM (active). The GI50 with HOP-92 and in the experiment with SW-620 was < 0.01 µM (active) in each case.

With `CN(C)CCC(C(=O)C(C)(C)C)c1ccccn1` (stereo not given), the GI50 in the experiment on NCI-H23, with NCI-H522, with SNB-75, with KM12, with NCI-H226 and with Hs-578T was > 100 µM (inactive) in each case. In addition, the GI50 was > 100 µM (inactive) with SK-OV-3; > 100 µM (inactive) in the experiment on TK-10; > 100 µM (inactive) in the experiment on SN12C; > 100 µM in the experiment with HCT-15; > 100 µM (inactive) with A498; > 100 µM (inactive) in the experiment with UACC-62. Moreover, the GI50 in the experiment with DU-145, in the experiment with BT-549, with LOX IMVI, in the experiment with OVCAR-8, in the experiment on ACHN and with EKVX was > 100 µM (inactive) throughout. In addition, the GI50 in the experiment on HOP-92 and with SW-620 was > 100 µM (inactive) in each case.

As to `O=c1[nH]/c(=C/c2ccc3c(c2)OCO3)c(=O)[nH]/c1=C/c1ccc2c(c1)OCO2`, the GI50 with NCI-H23, in the experiment with NCI-H522, in the experiment with SNB-75, in the experiment with KM12, in the experiment with NCI-H226 and in the experiment with Hs-578T was > 10 µM (inactive) throughout. The GI50 with SK-OV-3 was > 10 µM (inactive); in the experiment with TK-10, > 10 µM (inactive); in the experiment on SN12C, > 10 µM (inactive); with HCT-15, > 10 µM; in the experiment on A498 it was > 10 µM (inactive); in the experiment with UACC-62, > 10 µM (inactive). Moreover, the GI50 in the experiment with DU-145, in the experiment on BT-549, with LOX IMVI, in the experiment on OVCAR-8, in the experiment on ACHN and in the experiment on EKVX was > 10 µM (inactive) in each case. Besides, the GI50 with HOP-92 and in the experiment on SW-620 was > 10 µM (inactive) throughout.

On to `Cc1ccc(S(=O)(=O)O)cc1.c1cc2c(c(NC3=NCCN3)c1)CCCC2`, for which the GI50 was > 100 µM (inactive) in the experiment on NCI-H23; > 100 µM (inactive) with NCI-H522; 89.3 µM (inactive) in the experiment with SNB-75; > 100 µM (inactive) in the experiment on KM12; > 100 µM (inactive) with NCI-H226; > 100 µM (inactive) with Hs-578T. The GI50 with SK-OV-3 is > 100 µM (inactive); with TK-10 it was > 100 µM (inactive); with SN12C, > 100 µM (inactive); in the experiment with HCT-15, > 100 µM; in the experiment on A498, > 100 µM (inactive); in the experiment on UACC-62 it was > 100 µM (inactive). The GI50 in the experiment on DU-145, in the experiment on BT-549, in the experiment on LOX IMVI, with OVCAR-8, in the experiment on ACHN and in the experiment with EKVX was > 100 µM (inactive) throughout. Moreover, the GI50 is > 100 µM (inactive) with HOP-92 and 56.2 µM (inactive) in the experiment with SW-620.

Regarding `O=c1cc(N2CCCC2)[nH]c(=O)n1-c1cccc(Cl)c1`, the GI50 with NCI-H23, in the experiment with NCI-H522, in the experiment with SNB-75, in the experiment with KM12, in the experiment on NCI-H226 and in the experiment with Hs-578T was > 100 µM (inactive) each time. Besides, the GI50 with SK-OV-3 was > 100 µM (inactive); in the experiment with TK-10, > 100 µM (inactive); in the experiment with SN12C, > 100 µM (inactive); in the experiment with HCT-15 it was > 100 µM; in the experiment on A498 it was > 100 µM (inactive); in the experiment on UACC-62 it was > 100 µM (inactive). Further, the GI50 in the experiment on DU-145, in the experiment on BT-549, in the experiment with LOX IMVI, in the experiment on OVCAR-8, in the experiment with ACHN and in the experiment with EKVX was > 100 µM (inactive) each time. The GI50 in the experiment with HOP-92 and with SW-620 was > 100 µM (inactive) throughout.

Regarding `c1cc(C[S+]2CCCC2)ccc1C[S+]1CCCC1`, the GI50 in the experiment with NCI-H23 is > 100 µM (inactive); in the experiment on NCI-H522, > 100 µM (inactive); in the experiment on SNB-75, 52.1 µM (inactive); in the experiment with KM12, > 100 µM (inactive); in the experiment with NCI-H226, > 100 µM (inactive); in the experiment with Hs-578T, > 100 µM (inactive). Moreover, the GI50 in the experiment with SK-OV-3 is > 100 µM (inactive); with TK-10, > 100 µM (inactive); in the experiment on SN12C it was > 100 µM (inactive); with HCT-15 it was > 100 µM; with A498, 29.2 µM (inactive); in the experiment on UACC-62 it was > 100 µM (inactive). Moreover, the GI50 in the experiment on DU-145, in the experiment on BT-549, with LOX IMVI, in the experiment with OVCAR-8, with ACHN and in the experiment on EKVX was > 100 µM (inactive) throughout. Further, the GI50 in the experiment on HOP-92 and in the experiment on SW-620 was > 100 µM (inactive) each time.

In the case of `Oc1ccc(/N=C/c2ccc(/C=N/c3ccc(O)cc3)cc2)cc1`, the GI50 with NCI-H23 was 17.1 µM (inactive); with NCI-H522, 17.7 µM (inactive); in the experiment with SNB-75, 16.7 µM (inactive); in the experiment with KM12 it was 15.3 µM (inactive); in the experiment with NCI-H226, 14.6 µM (inactive); in the experiment on Hs-578T, 23.6 µM (inactive). Also, the GI50 was 16.9 µM (inactive) in the experiment with SK-OV-3; 18.1 µM (inactive) in the experiment with TK-10; 14.9 µM (inactive) with SN12C; 15 µM with HCT-15; 24.3 µM (inactive) in the experiment on A498; 12.6 µM (inactive) in the experiment on UACC-62. Moreover, the GI50 in the experiment on DU-145 is 18 µM (inactive); in the experiment on BT-549 it was 17.4 µM (inactive); in the experiment on LOX IMVI, 16.1 µM (inactive); with OVCAR-8, 13.8 µM (inactive); in the experiment on ACHN it was 13.1 µM (inactive); in the experiment with EKVX it was 32.1 µM (inactive). Also, the results for the GI50 with HOP-92 and in the experiment with SW-620 were 24.7 µM (inactive) and 17.5 µM (inactive), respectively.

With `CN(C)CCN(c1ccccn1)c1ccccn1`, the GI50 in the experiment on NCI-H23, with NCI-H522, in the experiment with SNB-75, with KM12, in the experiment on NCI-H226 and in the experiment with Hs-578T was > 100 µM (inactive) in each case. For the same compound, the GI50 was > 100 µM (inactive) with SK-OV-3; > 100 µM (inactive) in the experiment on TK-10; > 100 µM (inactive) in the experiment with SN12C; > 100 µM in the experiment with HCT-15; > 100 µM (inactive) in the experiment with A498; > 100 µM (inactive) in the experiment with UACC-62. Besides, the GI50 with DU-145, in the experiment with BT-549, in the experiment with LOX IMVI, in the experiment on OVCAR-8, with ACHN and with EKVX was > 100 µM (inactive) in each case. The GI50 in the experiment with HOP-92 and in the experiment on SW-620 was > 100 µM (inactive) each time.
